Measured values reported in article PMC5598403 (Toxicology Reports, 2014).

Target: CK2α (protein kinase CK2 catalytic subunit α) (Homo sapiens, UniProt P68400)
Test: radiometric [γ-32P]ATP kinase assay with synthetic peptide RRRADDSDDDDD
Assay type: biochemical

Chain of CK2α (protein kinase CK2 catalytic subunit α) (P68400 whole entry): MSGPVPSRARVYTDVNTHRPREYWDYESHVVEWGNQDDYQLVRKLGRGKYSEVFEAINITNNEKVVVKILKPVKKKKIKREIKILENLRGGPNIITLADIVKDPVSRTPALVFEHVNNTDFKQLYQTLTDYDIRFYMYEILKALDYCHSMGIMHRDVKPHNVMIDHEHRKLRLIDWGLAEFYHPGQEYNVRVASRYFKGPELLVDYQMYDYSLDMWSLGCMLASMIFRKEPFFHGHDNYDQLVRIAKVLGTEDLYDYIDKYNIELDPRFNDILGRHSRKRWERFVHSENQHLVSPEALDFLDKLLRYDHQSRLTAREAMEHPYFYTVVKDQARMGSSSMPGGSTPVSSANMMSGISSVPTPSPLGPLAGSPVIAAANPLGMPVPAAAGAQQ

Oc1c(Cl)c(Cl)c(Cl)c(Cl)c1Cl [PCP, pentachlorophenol] was tested, and the IC50 was 3.73 µM.
